Reference: patent publication US20210317134A1, “UBIQUITIN-SPECIFIC-PROCESSING PROTEASE 7 (USP7) MODULATORS AND USES THEREOF” (RAPT THERAPEUTICS, INC., priority 2019, published 2021)

What follows are molecules tested against USP7 (Homo sapiens, UniProt Q93009) (assay: USP7 inhibitory potency (Table 1)).
Type: biochemical

Chain of USP7 (Q93009 whole entry): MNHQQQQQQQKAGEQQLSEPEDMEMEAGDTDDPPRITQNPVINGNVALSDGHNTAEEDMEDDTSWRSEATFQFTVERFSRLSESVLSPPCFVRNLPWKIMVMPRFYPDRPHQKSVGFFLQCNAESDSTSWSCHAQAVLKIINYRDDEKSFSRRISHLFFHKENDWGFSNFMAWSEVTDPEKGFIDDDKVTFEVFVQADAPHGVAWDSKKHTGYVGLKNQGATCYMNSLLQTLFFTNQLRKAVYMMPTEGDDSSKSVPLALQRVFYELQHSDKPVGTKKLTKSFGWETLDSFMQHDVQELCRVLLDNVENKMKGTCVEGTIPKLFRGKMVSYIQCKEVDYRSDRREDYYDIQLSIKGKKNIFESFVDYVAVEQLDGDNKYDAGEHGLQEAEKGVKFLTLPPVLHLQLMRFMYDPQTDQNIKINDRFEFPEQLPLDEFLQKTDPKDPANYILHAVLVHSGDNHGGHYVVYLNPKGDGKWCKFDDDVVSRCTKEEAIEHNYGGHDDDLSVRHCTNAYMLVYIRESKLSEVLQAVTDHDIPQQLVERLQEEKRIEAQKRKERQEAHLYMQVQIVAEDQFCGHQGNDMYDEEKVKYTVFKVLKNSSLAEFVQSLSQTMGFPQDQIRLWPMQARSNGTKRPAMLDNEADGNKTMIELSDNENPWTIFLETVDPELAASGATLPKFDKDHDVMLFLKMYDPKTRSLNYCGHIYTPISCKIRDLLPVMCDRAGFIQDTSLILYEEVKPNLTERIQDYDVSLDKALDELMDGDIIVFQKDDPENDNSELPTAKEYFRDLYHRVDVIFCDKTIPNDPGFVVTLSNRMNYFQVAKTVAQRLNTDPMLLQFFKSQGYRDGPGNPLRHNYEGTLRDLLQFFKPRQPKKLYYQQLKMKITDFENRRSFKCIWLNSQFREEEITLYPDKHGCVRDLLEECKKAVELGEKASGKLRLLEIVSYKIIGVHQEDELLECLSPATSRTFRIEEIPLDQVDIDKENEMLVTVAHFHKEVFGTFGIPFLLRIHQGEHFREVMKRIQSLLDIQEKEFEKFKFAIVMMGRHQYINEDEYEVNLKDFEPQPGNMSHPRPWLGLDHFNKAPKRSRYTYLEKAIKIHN

| SMILES | IC50 [nM] |
| --- | --- |
| OC1(c2cc3nccc(-c4cc(Cl)cc5c4O[C@@H](c4onc6c4CNCC6)C5)c3s2)CNC1 [(R)-3-(7-(5-chloro-2-(4,5,6,7-tetrahydroisoxazolo[4,3-c]pyridin-3-yl)-2,3-dihydrobenzofuran-7-yl)thieno[3,2-b]pyridin-2-yl)azetidin-3-ol] | 1000 to 10000 |
| O=C(C1Cc2cc(Cl)cc(-c3ccnc4[nH]ccc34)c2O1)N1CCC(N2CCOCC2)CC1 (centres unmarked) [(5-chloro-7-(1H-pyrrolo[2,3-b]pyridin-4-yl)-2,3-dihydrobenzofuran-2-yl)(4-morpholinopiperidin-1-yl)methanone] | 1000 to 10000 |
| Clc1cc2c(c(-c3ccncc3)c1)OC(c1onc3c1CNCC3)C2 (centres unmarked) [3-(5-chloro-7-(pyridin-4-yl)-2,3-dihydrobenzofuran-2-yl)-4,5,6,7-tetrahydroisoxazolo[4,3-c]pyridine] | 1000 to 10000 |
| O=C(C1Cc2cc(Cl)cc(-c3ccnc4[nH]ccc34)c2O1)N1CCN([C@H]2CC[C@H](c3ccccc3)CC2)CC1 (some centres unmarked) [(5-chloro-7-(1H-pyrrolo[2,3-b]pyridin-4-yl)-2,3-dihydrobenzofuran-2-yl)(4-((1s,4r)-4-phenylcyclohexyl)piperazin-1-yl)methanone] | 1000 to 10000 |
| CC1(C(=O)N2CCNCC2)Cc2cc(Cl)cc(-c3ccnc4[nH]ccc34)c2O1 (centres unmarked) [(5-chloro-2-methyl-7-(1H-pyrrolo[2,3-b]pyridin-4-yl)-2,3-dihydrobenzofuran-2-yl)(piperazin-1-yl)methanone] | 1000 to 10000 |
| O=C(C1Cc2cc(Cl)cc(-c3ccnc4[nH]c(Cc5cc6ccccc6cn5)cc34)c2O1)N1CCNCC1 (centres unmarked) [(5-chloro-7-(2-(isoquinolin-3-ylmethyl)-1H-pyrrolo[2,3-b]pyridin-4-yl)-2,3-dihydrobenzofuran-2-yl)(piperazin-1-yl)methanone] | 1000 to 10000 |
| O=C([C@H]1Cc2cc(Cl)cc(-c3ccnc4cc(CO)sc34)c2O1)N1CCn2nc(C(F)(F)F)nc2C1 [(R)-(5-chloro-7-(2-(hydroxymethyl)thieno[3,2-b]pyridin-7-yl)-2,3-dihydrobenzofuran-2-yl)(2-(trifluoromethyl)-5,6-dihydro-[1,2,4]triazolo[1,5-a]pyrazin-7(8H)-yl)methanone] | 1000 to 10000 |
| COC(=O)c1ccc2c(-c3cc(Cl)cc4c3OC(C(=O)N3CCNCC3)C4)ccnc2c1 (centres unmarked) [methyl 4-(5-chloro-2-(piperazine-1-carbonyl)-2,3-dihydrobenzofuran-7-yl)quinoline-7-carboxylate] | 10000 to 30000 |
| CNC(=O)C1Cc2nccc(-c3cc(Cl)cc4c3O[C@@H](c3onc5c3CNCC5)C4)c2C1 (stereo partly drawn) [4-((R)-5-chloro-2-(4,5,6,7-tetrahydroisoxazolo[4,3-c]pyridin-3-yl)-2,3-dihydrobenzofuran-7-yl)-N-methyl-6,7-dihydro-5H-cyclopenta[b]pyridine-6-carboxamide] | 1000 to 10000 |
| CN(C)[C@H]1CCc2noc(C3Cc4cc(Cl)cc(-c5ccnc6cc(CO)sc56)c4O3)c2C1 (stereo partly drawn) [(7-(5-chloro-2-((S)-5-(dimethylamino)-4,5,6,7-tetrahydrobenzo[c]isoxazol-3-yl)-2,3-dihydrobenzofuran-7-yl)thieno[3,2-b]pyridin-2-yl)methanol] | 1000 to 10000 |
| CCC(O)c1cc2nccc(-c3cc(Cl)cc4c3OC(c3onc5c3CNCC5)C4)n2n1 (centres unmarked) [1-(7-(5-chloro-2-(4,5,6,7-tetrahydroisoxazolo[4,3-c]pyridin-3-yl)-2,3-dihydrobenzofuran-7-yl)pyrazolo[1,5-a]pyrimidin-2-yl)propan-1-ol] | 1000 to 10000 |
| CN(C)Cc1ncoc1[C@H]1Cc2cc(Cl)cc(-c3ccnc4ccsc34)c2O1 [(R)-1-(5-(5-chloro-7-(thieno[3,2-b]pyridin-7-yl)-2,3-dihydrobenzofuran-2-yl)oxazol-4-yl)-N,N-dimethylmethanamine] | < 1000 |
| O=C(C1Cc2cc(Cl)cc(-c3ccnc4[nH]ccc34)c2O1)N1CCC(O)(c2cccnc2)CC1 (centres unmarked) [(5-chloro-7-(1H-pyrrolo[2,3-b]pyridin-4-yl)-2,3-dihydrobenzofuran-2-yl)(4-hydroxy-4-(pyridin-3-yl)piperidin-1-yl)methanone] | < 1000 |
| Cn1nc2c(c1[C@H]1Cc3cc(Cl)cc(-c4ccnc5cc(CN6C(=O)CCC6=O)sc45)c3O1)CNCC2 [(R)-1-((7-(5-chloro-2-(2-methyl-4,5,6,7-tetrahydro-2H-pyrazolo[4,3-c]pyridin-3-yl)-2,3-dihydrobenzofuran-7-yl)thieno[3,2-b]pyridin-2-yl)methyl)pyrrolidine-2,5-dione] | < 1000 |
| O=C(C1Cc2cc(Cl)cc(-c3ccnc4[nH]ccc34)c2O1)N1CCC(O)(c2ccccc2)CC1 (centres unmarked) [(5-chloro-7-(1H-pyrrolo[2,3-b]pyridin-4-yl)-2,3-dihydrobenzofuran-2-yl)(4-hydroxy-4-phenylpiperidin-1-yl)methanone] | 1000 to 10000 |
| O=C(C1Cc2cc(Cl)cc(-c3ccnc4ccncc34)c2O1)N1CCNCC1 (centres unmarked) [(5-chloro-7-(1,6-naphthyridin-4-yl)-2,3-dihydrobenzofuran-2-yl)(piperazin-1-yl)methanone] | 10000 to 30000 |
| Cn1nc2c(c1[C@H]1Cc3cc(Cl)cc(-c4ncnc5ccsc45)c3O1)CNCC2 [(R)-4-(5-chloro-2-(2-methyl-4,5,6,7-tetrahydro-2H-pyrazolo[4,3-c]pyridin-3-yl)-2,3-dihydrobenzofuran-7-yl)thieno[3,2-d]pyrimidine] | < 1000 |
| CN(C)C(=O)CCc1cc2nccc(-c3cc(Cl)cc4c3O[C@@H](C(=O)N3CCNCC3)C4)c2s1 [(R)-3-(7-(5-chloro-2-(piperazine-1-carbonyl)-2,3-dihydrobenzofuran-7-yl)thieno[3,2-b]pyridin-2-yl)-N,N-dimethylpropanamide] | 1000 to 10000 |
| CC[C@@H](O)c1cc2nccc(-c3cc(Cl)cc4c3O[C@@](C)(c3onc5c3CNCC5)C4)c2s1 [(R)-1-(7-((R)-5-chloro-2-methyl-2-(4,5,6,7-tetrahydroisoxazolo[4,3-c]pyridin-3-yl)-2,3-dihydrobenzofuran-7-yl)thieno[3,2-b]pyridin-2-yl)propan-1-ol] | < 1000 |
| O=C([C@H]1Cc2cc(Cl)cc(-c3ccnc4cc(CO)sc34)c2O1)N1CCn2c(nnc2C(F)(F)F)C1 [(R)-(5-chloro-7-(2-(hydroxymethyl)thieno[3,2-b]pyridin-7-yl)-2,3-dihydrobenzofuran-2-yl)(3-(trifluoromethyl)-5,6-dihydro-[1,2,4]triazolo[4,3-a]pyrazin-7(8H)-yl)methanone] | 1000 to 10000 |

Next, values leading:

| IC50 [nM] | SMILES |
| --- | --- |
| < 1000 | CC(=O)NCc1cc2nccc(-c3cc(Cl)cc4c3O[C@@H](c3onc5c3CNCC5)C4)c2s1 [(R)-N-((7-(5-chloro-2-(4,5,6,7-tetrahydroisoxazolo[4,3-c]pyridin-3-yl)-2,3-dihydrobenzofuran-7-yl)thieno[3,2-b]pyridin-2-yl)methyl)acetamide] |
| < 1000 | Cn1nc2c(c1[C@H]1Cc3cc(Cl)cc(-c4ncnc5cc(CO)sc45)c3O1)CNCC2 [(R)-(4-(5-chloro-2-(2-methyl-4,5,6,7-tetrahydro-2H-pyrazolo[4,3-c]pyridin-3-yl)-2,3-dihydrobenzofuran-7-yl)thieno[3,2-d]pyrimidin-6-yl)methanol] |
| < 1000 | O=C([C@H]1Cc2cc(Cl)cc(-c3ccnc4cc(CO)sc34)c2O1)N1CCn2ccnc2C1 [(R)-(5-chloro-7-(2-(hydroxymethyl)thieno[3,2-b]pyridin-7-yl)-2,3-dihydrobenzofuran-2-yl)(5,6-dihydroimidazo[1,2-a]pyrazin-7(8H)-yl)methanone] |
| < 1000 | CN(C)[C@@H]1CCN(C(=O)[C@H]2Cc3cc(Cl)cc(-c4ccnc5cc(CO)sc45)c3O2)C1 [((R)-5-chloro-7-(2-(hydroxymethyl)thieno[3,2-b]pyridin-7-yl)-2,3-dihydrobenzofuran-2-yl)((R)-3-(dimethylamino)pyrrolidin-1-yl)methanone] |
| < 1000 | O=C1NC(=O)C(c2cc3nccc(-c4cc(Cl)cc5c4O[C@@H](C(=O)N4CCNCC4)C5)c3s2)N1 (stereo partly drawn) [5-(7-((R)-5-chloro-2-(piperazine-1-carbonyl)-2,3-dihydrobenzofuran-7-yl)thieno[3,2-b]pyridin-2-yl)imidazolidine-2,4-dione] |
| < 1000 | CCN1CCc2noc([C@H]3Cc4cc(Cl)cc(-c5ccnc6ccsc56)c4O3)c2C1 [(R)-3-(5-chloro-7-(thieno[3,2-b]pyridin-7-yl)-2,3-dihydrobenzofuran-2-yl)-5-ethyl-4,5,6,7-tetrahydroisoxazolo[4,3-c]pyridine] |
| < 1000 | CC[C@H](O)c1cc2nccc(-c3cc(Cl)cc4c3O[C@@H](C(=O)N3CCNCC3)C4)c2s1 [((R)-5-chloro-7-(2-((S)-1-hydroxypropyl)thieno[3,2-b]pyridin-7-yl)-2,3-dihydrobenzofuran-2-yl)(piperazin-1-yl)methanone] |
| < 1000 | O=C([C@H]1Cc2cc(Cl)cc(-c3ccnc4c3CCC4)c2O1)N1CCNCC1 [(R)-(5-chloro-7-(6,7-dihydro-5H-cyclopenta[b]pyridin-4-yl)-2,3-dihydrobenzofuran-2-yl)(piperazin-1-yl)methanone] |
| < 1000 | C[C@@H]1CCN(Cc2cc3nccc(-c4cc(Cl)cc5c4O[C@@H](C(=O)N4CCNCC4)C5)c3s2)C1=O [(R)-1-((7-((R)-5-chloro-2-(piperazine-1-carbonyl)-2,3-dihydrobenzofuran-7-yl)thieno[3,2-b]pyridin-2-yl)methyl)-3-methylpyrrolidin-2-one] |
| < 1000 | O=C([C@H]1Cc2cc(Cl)cc(-c3ccnc4cc(CN5C(=O)CNC5=O)sc34)c2O1)N1CCNCC1 [(R)-3-((7-(5-chloro-2-(piperazine-1-carbonyl)-2,3-dihydrobenzofuran-7-yl)thieno[3,2-b]pyridin-2-yl)methyl)imidazolidine-2,4-dione] |
| < 1000 | CC(=O)N(C)Cc1cc2nccc(-c3cc(Cl)cc4c3O[C@@H](C(=O)N3CCNCC3)C4)c2s1 [(R)-N-((7-(5-chloro-2-(piperazine-1-carbonyl)-2,3-dihydrobenzofuran-7-yl)thieno[3,2-b]pyridin-2-yl)methyl)-N-methylacetamide] |
| < 1000 | CN(C)C1CCN(C(=O)[C@H]2Cc3cc(Cl)cc(-c4ccnc5cc(CO)sc45)c3O2)CC1 [(R)-(5-chloro-7-(2-(hydroxymethyl)thieno[3,2-b]pyridin-7-yl)-2,3-dihydrobenzofuran-2-yl)(4-(dimethylamino)piperidin-1-yl)methanone] |
